Measured values published in the supplement of paper PMC10307832.

Experiments:
Assay in all cases: relative viability (nuclei count vs DMSO), 5 days (fraction); higher = more cells survive
[1] = compound: C#Cc1cccc(Nc2ncnc3cc(OC)c(OCCCCCCC(=O)NO)cc23)c1 [CUDC-101] + CC1(C)CCC(c2ccc(Cl)cc2)=C(CN2CCN(c3ccc(C(=O)NS(=O)(=O)c4ccc(N[C@H](CCN5CCOCC5)CSc5ccccc5)c(S(=O)(=O)C(F)(F)F)c4)cc3)CC2)C1 [Navitoclax] (partner 0.5 µM)
Procedure, shortened: (§1)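 Lung cancer cell lines were seeded in 1536-well plates and dosed by pin tool the next day, with either a single drug or a fixed anchor-drug dose combined with five library-drug doses (not always all listed) spaced in √10 steps. Five days later, one step fixed the cells and stained their nuclei (final 0.05% Triton X-100, 1% formaldehyde, 1 ug/ml Hoechst), and nuclei were counted on 4× images. Relative viability is the nuclei count in treated wells divided by the count in vehicle wells, and each value is the median of duplicate plates.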

[2] = compound: COc1cc(N2CCC(N3CCN(C)CC3)CC2)ccc1Nc1ncc(Cl)c(Nc2ccccc2S(=O)(=O)C(C)C)n1 [NVP-TAE684] + CC(=O)c1c(C)c2cnc(Nc3ccc(N4CCNCC4)cn3)nc2n(C2CCCC2)c1=O [Palbociclib] (partner 0.5 µM)
Procedure, shortened: as §1

[3] = compound: C#Cc1cccc(Nc2ncnc3cc(OC)c(OCCCCCCC(=O)NO)cc23)c1 [CUDC-101] + CC(=O)Nc1cccc(-n2c(=O)n(C3CC3)c(=O)c3c(Nc4ccc(I)cc4F)n(C)c(=O)c(C)c32)c1 [Trametinib] (partner 0.02 µM)
Procedure, shortened: as §1

Cell Line: HCC-15
- relative viability ([1]; first compound 0.01 µM): 0.689
- relative viability ([1]; first compound 0.03162 µM): 0.69
- relative viability ([1]; first compound 0.1 µM): 0.762
- relative viability ([1]; first compound 0.3162 µM): 0.678
- relative viability ([1]; first compound 1 µM): 0.566
- relative viability ([2]; first compound 0.2 µM): 0.63
- relative viability ([2]; first compound 0.6325 µM): 0.7
- relative viability ([2]; first compound 2 µM): 0.587
- relative viability ([3]; first compound 0.01 µM): 0.396
- relative viability ([3]; first compound 0.03162 µM): 0.382
- relative viability ([3]; first compound 0.1 µM): 0.385
- relative viability ([3]; first compound 0.3162 µM): 0.399
- relative viability ([3]; first compound 1 µM): 0.262

Cell Line: LCLC-103H
- relative viability ([2]; first compound 0.2 µM): 0.482
- relative viability ([2]; first compound 0.6325 µM): 0.447
- relative viability ([2]; first compound 2 µM): 0.413
- relative viability ([3]; first compound 0.01 µM): 0.666
- relative viability ([3]; first compound 0.03162 µM): 0.66
- relative viability ([3]; first compound 0.1 µM): 0.662
- relative viability ([3]; first compound 0.3162 µM): 0.707
- relative viability ([3]; first compound 1 µM): 0.681

Cell Line: HARA
- relative viability ([1]; first compound 0.01 µM): 1.13
- relative viability ([1]; first compound 0.03162 µM): 1.16
- relative viability ([1]; first compound 0.1 µM): 1.09
- relative viability ([1]; first compound 0.3162 µM): 1.14
- relative viability ([1]; first compound 1 µM): 0.837
- relative viability ([2]; first compound 0.2 µM): 0.297
- relative viability ([2]; first compound 0.6325 µM): 0.234
- relative viability ([2]; first compound 2 µM): 0.164
- relative viability ([3]; first compound 0.01 µM): 0.417
- relative viability ([3]; first compound 0.03162 µM): 0.487
- relative viability ([3]; first compound 0.3162 µM): 0.356
- relative viability ([3]; first compound 1 µM): 0.235

Cell Line: BEN
- relative viability ([1]; first compound 0.01 µM): 0.0901
- relative viability ([1]; first compound 0.03162 µM): 0.0957
- relative viability ([1]; first compound 0.1 µM): 0.427
- relative viability ([1]; first compound 0.3162 µM): 0.137
- relative viability ([1]; first compound 1 µM): 0.0346
- relative viability ([2]; first compound 0.2 µM): 0.486
- relative viability ([2]; first compound 0.6325 µM): 0.479
- relative viability ([2]; first compound 2 µM): 0.495
- relative viability ([3]; first compound 0.01 µM): 1.03
- relative viability ([3]; first compound 0.03162 µM): 0.889
- relative viability ([3]; first compound 0.1 µM): 0.895
- relative viability ([3]; first compound 0.3162 µM): 0.972
- relative viability ([3]; first compound 1 µM): 0.706

Cell Line: LC-2-ad
- relative viability ([1]; first compound 0.01 µM): 0.462
- relative viability ([1]; first compound 0.03162 µM): 0.475
- relative viability ([1]; first compound 0.1 µM): 0.49
- relative viability ([1]; first compound 0.3162 µM): 0.517
- relative viability ([1]; first compound 1 µM): 0.196
- relative viability ([2]; first compound 0.2 µM): 0.43
- relative viability ([2]; first compound 0.6325 µM): 0.482
- relative viability ([2]; first compound 2 µM): 0.32
- relative viability ([3]; first compound 0.01 µM): 0.929
- relative viability ([3]; first compound 0.03162 µM): 0.913
- relative viability ([3]; first compound 0.1 µM): 0.912
- relative viability ([3]; first compound 0.3162 µM): 0.823
- relative viability ([3]; first compound 1 µM): 0.773

Cell Line: NCI-H1299
- relative viability ([1]; first compound 0.01 µM): 1.05
- relative viability ([1]; first compound 0.03162 µM): 0.992
- relative viability ([1]; first compound 0.1 µM): 1.12
- relative viability ([1]; first compound 0.3162 µM): 1.06
- relative viability ([1]; first compound 1 µM): 1.02

Cell Line: NCI-H2009
- relative viability ([1]; first compound 0.01 µM): 1.23
- relative viability ([1]; first compound 0.03162 µM): 1.05
- relative viability ([1]; first compound 0.1 µM): 1.18
- relative viability ([1]; first compound 0.3162 µM): 1.16
- relative viability ([1]; first compound 1 µM): 1.1
- relative viability ([2]; first compound 0.2 µM): 0.2
- relative viability ([2]; first compound 0.6325 µM): 0.183
- relative viability ([2]; first compound 2 µM): 0.203
- relative viability ([3]; first compound 0.01 µM): 0.307
- relative viability ([3]; first compound 0.03162 µM): 0.245
- relative viability ([3]; first compound 0.1 µM): 0.274
- relative viability ([3]; first compound 0.3162 µM): 0.34
- relative viability ([3]; first compound 1 µM): 0.292

Cell Line: NCI-H1395
- relative viability ([1]; first compound 0.01 µM): 1.26
- relative viability ([1]; first compound 0.03162 µM): 1.13
- relative viability ([1]; first compound 0.1 µM): 1.46
- relative viability ([1]; first compound 0.3162 µM): 1.75
- relative viability ([1]; first compound 1 µM): 0.991
- relative viability ([2]; first compound 0.2 µM): 0.618
- relative viability ([2]; first compound 0.6325 µM): 0.639
- relative viability ([2]; first compound 2 µM): 0.54
- relative viability ([3]; first compound 0.01 µM): 1.13
- relative viability ([3]; first compound 0.03162 µM): 1.05
- relative viability ([3]; first compound 0.1 µM): 1.01
- relative viability ([3]; first compound 0.3162 µM): 1.19
- relative viability ([3]; first compound 1 µM): 0.981

Cell Line: NCI-H1650
- relative viability ([1]; first compound 0.01 µM): 1.22
- relative viability ([1]; first compound 0.03162 µM): 0.967
- relative viability ([1]; first compound 0.1 µM): 1.28
- relative viability ([1]; first compound 0.3162 µM): 1.1
- relative viability ([1]; first compound 1 µM): 0.85
- relative viability ([2]; first compound 0.2 µM): 0.297
- relative viability ([2]; first compound 0.6325 µM): 0.299
- relative viability ([2]; first compound 2 µM): 0.211
- relative viability ([3]; first compound 0.01 µM): 0.637
- relative viability ([3]; first compound 0.03162 µM): 0.477
- relative viability ([3]; first compound 0.1 µM): 0.494
- relative viability ([3]; first compound 0.3162 µM): 0.588
- relative viability ([3]; first compound 1 µM): 0.372

Cell Line: NCI-H2085
- relative viability ([1]; first compound 0.01 µM): 1.11
- relative viability ([1]; first compound 0.03162 µM): 1.26
- relative viability ([1]; first compound 0.1 µM): 1.18
- relative viability ([1]; first compound 0.3162 µM): 1.16
- relative viability ([1]; first compound 1 µM): 1.02
- relative viability ([2]; first compound 0.2 µM): 0.463
- relative viability ([2]; first compound 0.6325 µM): 0.512
- relative viability ([2]; first compound 2 µM): 0.478
- relative viability ([3]; first compound 0.01 µM): 0.607
- relative viability ([3]; first compound 0.03162 µM): 0.496
- relative viability ([3]; first compound 0.1 µM): 0.706
- relative viability ([3]; first compound 0.3162 µM): 0.604
- relative viability ([3]; first compound 1 µM): 0.505

Cell Line: NCI-H1666
- relative viability ([1]; first compound 0.01 µM): 1.07
- relative viability ([1]; first compound 0.03162 µM): 0.796
- relative viability ([1]; first compound 0.1 µM): 1
- relative viability ([1]; first compound 0.3162 µM): 1.04
- relative viability ([1]; first compound 1 µM): 0.548
- relative viability ([2]; first compound 0.2 µM): 0.642
- relative viability ([2]; first compound 0.6325 µM): 0.713
- relative viability ([2]; first compound 2 µM): 0.617
- relative viability ([3]; first compound 0.01 µM): 0.842
- relative viability ([3]; first compound 0.03162 µM): 0.931
- relative viability ([3]; first compound 0.1 µM): 0.818
- relative viability ([3]; first compound 0.3162 µM): 0.911
- relative viability ([3]; first compound 1 µM): 0.831

Cell Line: NCI-H1993
- relative viability ([1]; first compound 0.01 µM): 0.827
- relative viability ([1]; first compound 0.03162 µM): 0.884
- relative viability ([1]; first compound 0.1 µM): 0.743
- relative viability ([1]; first compound 0.3162 µM): 0.771
- relative viability ([1]; first compound 1 µM): 0.558
- relative viability ([2]; first compound 0.2 µM): 0.437
- relative viability ([2]; first compound 0.6325 µM): 0.614
- relative viability ([2]; first compound 2 µM): 0.475
- relative viability ([3]; first compound 0.01 µM): 0.474
- relative viability ([3]; first compound 0.03162 µM): 0.682
- relative viability ([3]; first compound 0.1 µM): 0.546
- relative viability ([3]; first compound 0.3162 µM): 0.527
- relative viability ([3]; first compound 1 µM): 0.553

Cell Line: NCI-H1437
- relative viability ([1]; first compound 0.01 µM): 1.13
- relative viability ([1]; first compound 0.03162 µM): 1.07
- relative viability ([1]; first compound 0.1 µM): 1.22
- relative viability ([1]; first compound 0.3162 µM): 1.16
- relative viability ([1]; first compound 1 µM): 0.931
- relative viability ([2]; first compound 0.2 µM): 0.321
- relative viability ([2]; first compound 0.6325 µM): 0.291
- relative viability ([2]; first compound 2 µM): 0.231
- relative viability ([3]; first compound 0.01 µM): 0.54
- relative viability ([3]; first compound 0.03162 µM): 0.528
- relative viability ([3]; first compound 0.1 µM): 0.498
- relative viability ([3]; first compound 0.3162 µM): 0.468
- relative viability ([3]; first compound 1 µM): 0.263

Cell Line: ABC-1
- relative viability ([2]; first compound 0.2 µM): 0.635
- relative viability ([2]; first compound 0.6325 µM): 0.759
- relative viability ([2]; first compound 2 µM): 0.363
